Data reported in the OPERA property sets (Mansouri et al. 2018).

Conditions: for log10 BCF / log10 biotransformation half-life (days): fish

Structure (SMILES)	melting point [°C]	boiling point [°C]	other results
O=C(NC(=O)c1c(F)cccc1F)Nc1ccc(CO/N=C(\c2ccc(Cl)cc2)C2CC2)cc1	144		
CCc1cccc(-c2ccccc2)c1	-27.5	284	
Cc1ccc2ccccc2c1	34.4	241	log10 Henry constant (atm·m³/mol): -3.29; log10 Koc (L/kg): 3.6; log10 biodegradation half-life (days): 1.15; log10 vapour pressure (mmHg): -1.26; log10 BCF: 1.87; log10 biotransformation half-life (days): 0.88
CCCCCCCCCCCCCCCCCC(=O)OC(=O)CCCCCCCCCCCCCCCCC	72		
CC(=O)OC1CCC(C(C)(C)C)CC1 (centres undefined)	-50		log10 vapour pressure (mmHg): -2.12
BrCCCCCCCBr	41.7	263	
CC(=O)n1ccnc1	102		
C=C(C)C1CC=C(C=O)CC1 (centres undefined)		240	
O=C1c2ccccc2C(=O)N1SC(Cl)(Cl)Cl			log10 Koc (L/kg): 3.27; log10 vapour pressure (mmHg): -6.8
C=COC(C)(C)C	-112	75	
Clc1ccc(-c2ccccc2Cl)c(Cl)c1			log10 Koc (L/kg): 4.84
C=C=CC	-136	10.9	log10 vapour pressure (mmHg): 3.1
c1ccc2c(Nc3cccc4ccccc34)cccc2c1	115		
Nc1ccc(-c2ccc(N)c(N)c2)cc1N	176		
COc1ccc(OC)cc1	59	213	ready biodegradability: readily biodegradable
BrCC(Br)(Br)Br	0		
C=Cc1cccc(C)c1	-86.3	164	log10 vapour pressure (mmHg): 0.231; log10 BCF: 1.55
c1cncc([C@@H]2CCCN2)c1		270	ready biodegradability: not readily biodegradable
C[Si](C)(C)N[Si](C)(C)C		125	log10 vapour pressure (mmHg): 1.14
Brc1cnc2ccccc2c1	13.3	275	
CCOC(=O)c1ccccc1OC		261	
CC(C)(C)OC(=O)C1(S(=O)(=O)c2ccc(Cl)cc2)CC1	110		
CC(/C=C/C=C(\C)C(=O)O)=C\C=C\C=C(C)\C=C\C=C(/C)C(=O)O	286		

Structure (SMILES)	melting point [°C]	boiling point [°C]	other results
CC(C)CC(O)C(C)C (centres undefined)		158	
FC(F)(F)C(F)(Cl)C(F)(F)Cl (centres undefined)		34.1	
C(=NC1CCCCC1)=NC1CCCCC1	34.5		ready biodegradability: not readily biodegradable
O=C(CCCN1CCC(n2c(=S)[nH]c3ccccc32)CC1)c1ccc(F)cc1	202		
C[N+](C)(C)CC(=O)O.[Cl-]	242		
O=[N+]([O-])c1ccc(Sc2ccc([N+](=O)[O-])cc2)cc1	160		
Cc1c[nH]c2ccccc12	97.5	266	log10 vapour pressure (mmHg): -2.26
NS(=O)(=O)c1ccc(SCCCCO)s1	48.5		
CCCCCCCCCCCC(=O)Oc1ccccc1	24.5		
O=C(O)CNC(=S)C(=S)NCC(=O)O	220		
C=C1CCC(C)CC1		122	
N#CC1CCCCC1	11		
FC(F)(F)C(Cl)CCl (centres undefined)		76.9	
O=C(Cl)Cc1ccccc1			log10 vapour pressure (mmHg): -0.702
O=C1OCCC1N(C(=O)C1CC1)c1cccc(Cl)c1 (centres undefined)	95		
CC(C)c1cccc(O)c1O	47		
COCCOC1=C(N2CC2)C(=O)C(OCCOC)=C(N2CC2)C1=O	80		
O=C(Oc1ccccc1)Oc1ccccc1	83	306	log10 vapour pressure (mmHg): -3.82
COC(=O)c1ccccc1C		215	
CCC(CC)COC(C)=O		162	
CNC.O=C(O)COc1ccc(Cl)cc1Cl	86		log10 vapour pressure (mmHg): -9
CCN(CC)CCN1C(=O)CN=C(c2ccccc2F)c2cc(Cl)ccc21	79.5		
CCC(O)C(=O)O (centres undefined)	44.2		

Structure (SMILES)	melting point [°C]	boiling point [°C]	other results
CC(C)C=CCl		87	
CC(C)=CCC/C(C)=C/CO		228	log10 vapour pressure (mmHg): -1.52; ready biodegradability: readily biodegradable
CCCc1ccccc1C	-60.3	185	log10 biodegradation half-life (days): 0.477; log10 vapour pressure (mmHg): -0.0027
O=C(O)c1cccc(S(=O)(=O)O)c1			ready biodegradability: not readily biodegradable
CCC1(CC)C(=O)NC(=O)N(C)C1=O	150		
NCC(F)(F)F		37.5	
FC(F)(F)C(F)(F)C(Cl)(Cl)Cl	-80	74	
CC(=O)Oc1ccccc1OC(C)=O	64.5		
O=C(Nc1ccccc1)NC1CCCCC1			log10 Koc (L/kg): 2.07
CCSc1ccccc1		205	
CCCCNc1cc(C(=O)O)cc(S(N)(=O)=O)c1Oc1ccccc1	230		
C#CC(C)OC(=O)Nc1cccc(Cl)c1 (centres undefined)	45.5		log10 Koc (L/kg): 2.21; log10 vapour pressure (mmHg): -4.8
CC(C)COC(=O)CCCCC(=O)OCC(C)C	-20	279	
Oc1ccc(Nc2ccc3ccccc3c2)cc1	140		
Cc1cc2ccccc2c2ccc3ccccc3c12	118		
COc1ccc2c(c1)CC[C@@H]1[C@@H]2CC[C@]2(C)C(=O)[C@H](Cl)C[C@@H]12	180		
COC(=O)c1ccc2c(c1)OCO2	53		
CC(C)CCOC(=O)c1ccccc1		261	log10 vapour pressure (mmHg): -0.848
Clc1c2ccccc2nc2ccccc12	121		
Cc1cc2ccccc2cc1C	105	268	log10 Henry constant (atm·m³/mol): -3.04; log10 biodegradation half-life (days): 1.18; log10 vapour pressure (mmHg): -2.96; ready biodegradability: readily biodegradable; log10 biotransformation half-life (days): 0.03
CCN(C)C	-140	36.5	
CC(=O)c1ccc(-n2ccnc2)cc1			ready biodegradability: readily biodegradable
ClCCCCBr		175	

Structure (SMILES)	melting point [°C]	boiling point [°C]	other results
Clc1ccc(C(Cl)c2ccccc2)cc1 (centres undefined)			ready biodegradability: not readily biodegradable
C=CC(OC(C)=O)OC(C)=O	-37.6	180	ready biodegradability: readily biodegradable
CC1(C)C(O)=CC(=O)C=C1O	214		
CC(=O)c1ccccc1C		214	
NS(=O)(=O)c1cc2c(cc1Cl)N=C(CSCc1ccccc1)NS2(=O)=O	232		
Cc1cnccc1N	108		
Clc1cccc(Cl)c1Oc1ccccc1			log10 vapour pressure (mmHg): -2.89
Cc1cc(N)c2ncccc2c1	73		
CC(C)(C)c1ccc(CCOc2ncnc3ccccc23)cc1	78.5		log10 vapour pressure (mmHg): -7.59
FC(Cl)(Cl)c1ccccc1	-26.8	179	
OC[C@@H](O)[C@@H](O)[C@H](O)[C@@H](O)CO			ready biodegradability: readily biodegradable
Cl[Si](Cl)(c1ccccc1)c1ccccc1		305	ready biodegradability: not readily biodegradable
NC(=O)c1ccncc1	156		
CC1CCc2ccccc2O1 (centres undefined)		224	
CC(C)NCCCC1(C(N)=O)c2ccccc2-c2ccccc21	94.5		
Brc1sc(Br)c(Br)c1Br	118	326	
C[C@@H]1C[C@@H]([C@H](O)CC2CC(=O)NC(=O)C2)C(=O)[C@@H](C)C1	119		ready biodegradability: readily biodegradable; log10 BCF: 0.45
CC1=CCCC(C)(C)C1/C=C/C(C)=C/C=C/C(C)=C/C=C/C=C(C)/C=C/C=C(C)/C=C/C1=C(C)CCCC1(C)C (centres undefined)	188		
FC(F)(F)C(Cl)(Cl)C(F)(F)Cl	-4.3	72	
Cc1cc(C)c(C(=O)O)c(C)c1	154		
COC(=O)C(C)=O		136	
